One test deals with T1, p38alpha (Homo sapiens, UniProt Q16539).
T1 construct: purchased Invitrogen PV3304
The test can be described thus: P38Alpha enzyme inhibition assay (Alphascreen kinase activity assay). It counts as biochemical. The conditions noted are these: 100 pM p38alpha, 250 μM ATP, 2 hours pre-incubation at 25° C., read-out: p38α inhibition (IC50 values). In outline: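 p38α (100 pM) with ATF-2 fusion protein substrate (0.3 µg/ml) in pH 7.5 HEPES/MgCl2 buffer, 1% DMSO, preincubated 2 h at 25°C with compound. Reaction started with 250 µM ATP, ran 1 h at 25°C, then stopped with EDTA. Phospho-ATF2 antibody detected by AlphaScreen luminescence; IC50 from concentration-response curves.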
In general terms: In Alpha technology, singlet oxygen from a donor bead excites a nearby acceptor bead.

For test [1], the system named is LPS-stimulated TNFα release from PBMCs. Nature of the test: LPS-stimulated PBMC TNFα release assay. It counts as cell-based. Particulars: inhibition of TNFα release, human PBMCs, LPS 10 ng/ml, 18 h, ELISA, read-out: p38α inhibition (IC50 values). In outline: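 Healthy-donor human PBMCs, density-gradient isolated, preincubated 1 h at 37 °C with compound in 1% FBS RPMI 1640, then stimulated with LPS (10 ng/ml) for 18 h. Supernatant TNFα by ELISA; IC50 from dose-response of % inhibition of control release, n≥3 experiments.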

Molecules are shown by their SMILES. Counter-ions that a name gives are not always drawn. Bounds are passed on as bounds.

T1 sequence (Q16539 whole entry): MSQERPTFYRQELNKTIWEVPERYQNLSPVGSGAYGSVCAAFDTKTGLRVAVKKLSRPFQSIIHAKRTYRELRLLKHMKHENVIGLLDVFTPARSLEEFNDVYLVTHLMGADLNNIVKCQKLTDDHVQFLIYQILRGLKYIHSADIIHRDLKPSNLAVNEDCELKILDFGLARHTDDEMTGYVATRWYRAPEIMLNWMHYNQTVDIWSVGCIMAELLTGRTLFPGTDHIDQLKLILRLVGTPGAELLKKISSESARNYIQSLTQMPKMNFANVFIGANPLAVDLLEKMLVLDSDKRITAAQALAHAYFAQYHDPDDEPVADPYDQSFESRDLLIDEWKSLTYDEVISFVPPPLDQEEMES

As for `Cc1ccc(-n2nc(C(C)(C)C)cc2NC(=O)N[C@H]2CC[C@@H](Oc3ccc4nnc([C@H]5CCCN(C)C5)n4c3)c3ccccc32)cc1` [Example 88, 1-(5-tert-Butyl-2-p-tolyl-2H-pyrazol-3-yl)-3-{(1S,4R)-4-[3-((S)-1-methyl-piperidin-3-yl)-[1,2,4]triazolo[4,3-a]pyridin-6-yloxy]-1,2,3,4-tetrahydro-naphthalen-1-yl}-urea], the IC50 (on p38alpha; in test [1]) was under 10 nM each time.

`Cc1ccc(-n2nc(C(C)(C)C)cc2NC(=O)N[C@H]2CC[C@@H](Oc3ccc4nnc([C@@H]5CCCN(C)C5)n4c3)c3ccccc32)cc1` [Example 89, 1-(5-tert-Butyl-2-p-tolyl-2H-pyrazol-3-yl)-3-{(1S,4R)-4-[3-((R)-1-methyl-piperidin-3-yl)-[1,2,4]triazolo[4,3-a]pyridin-6-yloxy]-1,2,3,4-tetrahydro-naphthalen-1-yl}-urea]: the IC50 (at p38alpha; in test [1]) was under 10 nM each time.

For the compound `Cc1ccc(-n2nc(C(C)(C)C)cc2NC(=O)N[C@H]2CC[C@@H](Oc3ccc4nnc([C@@H]5CCN(C)C5)n4c3)c3ccccc32)cc1` [Example 90, 1-(5-tert-Butyl-2-p-tolyl-2H-pyrazol-3-yl)-3-{(1S,4R)-4-[3-((R)-1-methyl-pyrrolidin-3-yl)-[1,2,4]triazolo[4,3-a]pyridin-6-yloxy]-1,2,3,4-tetrahydro-naphthalen-1-yl}-urea], the IC50 (on p38alpha; in test [1]) was under 10 nM in each case.

Take `Cc1ccc(-n2nc(C(C)(C)C)cc2NC(=O)N[C@H]2CC[C@@H](Oc3ccc4nnc(N5CC[C@H](CO)C5)n4c3)c3ccccc32)cc1` [Example 92, 1-(5-tert-Butyl-2-p-tolyl-2H-pyrazol-3-yl)-3-{(1S,4R)-4-[3-((S)-3-hydroxymethyl-pyrrolidin-1-yl)-[1,2,4]triazolo[4,3-a]pyridin-6-yloxy]-1,2,3,4-tetrahydro-naphthalen-1-yl}-urea]: the IC50 (at p38alpha; in test [1]) was under 10 nM in each case.

As to `Cc1ccc(-n2nc(C(C)(C)C)cc2NC(=O)N[C@H]2CC[C@@H](Oc3ccc4nnc(N5CC[C@@H](CO)C5)n4c3)c3ccccc32)cc1` [Example 93, 1-(5-tert-Butyl-2-p-tolyl-2H-pyrazol-3-yl)-3-{(1S,4R)-4-[3-((R)-3-hydroxymethyl-pyrrolidin-1-yl)-[1,2,4]triazolo[4,3-a]pyridin-6-yloxy]-1,2,3,4-tetrahydro-naphthalen-1-yl}-urea], the IC50 (at p38alpha; in test [1]) was under 10 nM in each case.

With `Cc1ccc(-n2nc(C(C)(C)C)cc2NC(=O)N[C@H]2CC[C@@H](Oc3ccc4nnc(N5CCN(CCO)CC5)n4c3)c3ccccc32)cc1` [Example 94, 1-(5-tert-Butyl-2-p-tolyl-2H-pyrazol-3-yl)-3-((1S,4R)-4-{3-[4-(2-hydroxy-ethyl)-piperazin-1-yl]-[1,2,4]triazolo[4,3-a]pyridin-6-yloxy}-1,2,3,4-tetrahydro-naphthalen-1-yl)-urea], the results for the IC50 (on p38alpha; in test [1]) were under 10 nM and 10 to 100 nM, respectively.

In the case of `C[C@H]1CCCCN1c1nnc2ccc(O[C@@H]3CC[C@H](NC(=O)Nc4cc(C(C)(C)C)nn4-c4cccc(OCCN(C)C)c4)c4ccccc43)cn12` [Example 95], the IC50 (on p38alpha; in test [1]) was under 10 nM in each case.

In the case of `C[C@@H]1CCC[C@H](C)N1c1nnc2ccc(O[C@@H]3CC[C@H](NC(=O)Nc4cc(C(C)(C)C)nn4-c4cccc(OCCN(C)C)c4)c4ccccc43)cn12` [Example 96, 1-{5-tert-Butyl-2-[3-(2-dimethylamino-ethoxy)-phenyl]-2H-pyrazol-3-yl}-3-{(1S,4R)-4-[3-(cis-2,6-dimethyl-piperidin-1-yl)-[1,2,4]triazolo[4,3-a]pyridin-6-yloxy]-1,2,3,4-tetrahydro-naphthalen-1-yl}-urea formate salt], the IC50 (at p38alpha; in test [1]) was under 10 nM each time.

As to `C[C@H]1CCCCN1c1nnc2ccc(O[C@@H]3CC[C@H](NC(=O)Nc4cc(C(C)(C)C)nn4-c4cccc(CN5CCOCC5)c4)c4ccccc43)cn12` [Example 97, 1-[5-tert-Butyl-2-(3-morpholin-4-ylmethyl-phenyl)-2H-pyrazol-3-yl]-3-{(1S,4R)-4-[3-((S)-2-methyl-piperidin-1-yl)-[1,2,4]triazolo[4,3-a]pyridin-6-yloxy]-1,2,3,4-tetrahydro-naphthalen-1-yl}-urea formate salt], the IC50 (on p38alpha; in test [1]) was under 10 nM throughout.

For `C[C@H]1CCCCN1c1nnc2ccc(O[C@@H]3CC[C@H](NC(=O)Nc4cc(C(C)(C)C)nn4-c4cccc(CN5CCN(C)CC5)c4)c4ccccc43)cn12` [Example 98, 1-{5-tert-Butyl-2-[3-(4-methyl-piperazin-1-ylmethyl)-phenyl]-2H-pyrazol-3-yl}-3-{(1S,4R)-4-[3-((S)-2-methyl-piperidin-1-yl)-[1,2,4]triazolo[4,3-a]pyridin-6-yloxy]-1,2,3,4-tetrahydro-naphthalen-1-yl}-urea formate salt], the IC50 (at p38alpha; in test [1]) was under 10 nM each time.

Regarding `Cc1ccc(-n2nc(C(C)(C)C)cc2NC(=O)N[C@H]2CC[C@@H](Oc3ccc4nnc(C5(N(C)C)CCCC5)n4c3)c3ccccc32)cc1` [Example 99, 1-(5-tert-Butyl-2-p-tolyl-2H-pyrazol-3-yl)-3-{(1S,4R)-4-[3-(1-dimethylamino-cyclopentyl)-[1,2,4]triazolo[4,3-a]pyridin-6-yloxy]-1,2,3,4-tetrahydro-naphthalen-1-yl}-urea], the IC50 (at p38alpha; in test [1]) was under 10 nM in each case.

For the compound `Cc1ccc(-n2nc(C(C)(C)C)cc2NC(=O)N[C@H]2CC[C@@H](Oc3ccc4nnc(N5[C@H](C)CCC[C@@H]5C)n4c3)c3ccccc32)cc1` [Example 100, 1-(5-tert-Butyl-2-p-tolyl-2H-pyrazol-3-yl)-3-{(1S,4R)-4-[3-((2S,6R)-2,6-dimethyl-piperidin-1-yl)-[1,2,4]triazolo[4,3-a]pyridin-6-yloxy]-1,2,3,4-tetrahydro-naphthalen-1-yl}-urea], the IC50 (on p38alpha; in test [1]) was under 10 nM throughout.

As for `Cc1ccc(-n2nc(C(C)(C)C)cc2NC(=O)N[C@H]2CC[C@@H](Oc3ccc4nnc(N)n4c3)c3ccccc32)cc1` [Example 101, 1-[(1S,4R)-4-(3-Amino-[1,2,4]triazolo[4,3-a]pyridin-6-yloxy)-1,2,3,4-tetrahydro-naphthalen-1-yl]-3-(5-tert-butyl-2-p-tolyl-2H-pyrazol-3-yl)-urea], the IC50 (on p38alpha; in test [1]) was under 10 nM each time.

Turning to `Cc1ccc(-n2nc(C(C)(C)C)cc2NC(=O)N[C@H]2CC[C@@H](Oc3ccc4nnc(N5CCCCC5)n4c3)c3ccccc32)cn1` [Example 102, 1-[5-tert-Butyl-2-(6-methyl-pyridin-3-yl)-2H-pyrazol-3-yl]-3-[(1S,4R)-4-(3-piperidin-1-yl-[1,2,4]triazolo[4,3-a]pyridin-6-yloxy)-1,2,3,4-tetrahydro-naphthalen-1-yl]-urea], the IC50 (on p38alpha; in test [1]) was under 10 nM each time.

Turning to `CC(C)N(c1nnc2ccc(O[C@@H]3CC[C@H](NC(=O)Nc4cc(C(C)(C)C)nn4-c4cccc(OCCN(C)C)c4)c4ccccc43)cn12)C(C)C` [Example 103, 1-{5-tert-Butyl-2-[3-(2-dimethylamino-ethoxy)-phenyl]-2H-pyrazol-3-yl}-3-[(1S,4R)-4-(3-diisopropylamino-[1,2,4]triazolo[4,3-a]pyridin-6-yloxy)-1,2,3,4-tetrahydro-naphthalen-1-yl]-urea], the IC50 (on p38alpha; in test [1]) was under 10 nM throughout.

One may read the IC50 as the concentration needed to halve the response being measured.

The record behind these values is US9315503B2, “Kinase inhibitors” (CHIESI FARMACEUTICI S.p.A., priority 2011, dated 2016).
